Measurements reported in patent US11590116B2 (THERAVANCE BIOPHARMA R&D IP, LLC, priority 2019, dated 2023).

Tests used:
[1] = target: T1, recombinant human ALK5 (TGF-βR1) protein (Homo sapiens, UniProt P36897); test: Biochemical ALK5 (TGF-βR1) assay to measure pKi (LANCE Ultra ULight kinase assay); details: apparent pKi from pIC50 by Cheng-Prusoff, read-out: ALK5 pKi (converted)
T1 construct: purchased Life Technologies PR9075A
T1 sequence (P36897 34-503): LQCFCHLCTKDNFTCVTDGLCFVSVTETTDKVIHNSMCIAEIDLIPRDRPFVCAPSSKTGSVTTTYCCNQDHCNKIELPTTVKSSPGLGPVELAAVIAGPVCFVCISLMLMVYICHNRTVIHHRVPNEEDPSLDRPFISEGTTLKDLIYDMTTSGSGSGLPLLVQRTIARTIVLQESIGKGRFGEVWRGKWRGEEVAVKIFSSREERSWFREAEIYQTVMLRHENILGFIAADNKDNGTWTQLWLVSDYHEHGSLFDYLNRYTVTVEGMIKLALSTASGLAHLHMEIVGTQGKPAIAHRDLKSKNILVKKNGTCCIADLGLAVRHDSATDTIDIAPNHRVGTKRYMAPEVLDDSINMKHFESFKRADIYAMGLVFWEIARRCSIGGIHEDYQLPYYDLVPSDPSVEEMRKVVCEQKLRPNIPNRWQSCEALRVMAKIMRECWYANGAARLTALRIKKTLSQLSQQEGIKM
How it was run: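 Compounds (10 μM to 25 pM) preincubated 60 minutes at room temperature with enzyme, then reaction run 60 minutes at 37° C with ATP added as 125 μM (5× final). Stopped with EDTA plus Eu-anti-phospho-Topoisomerase 2-alpha (Thr1342) antibody, TR-FRET read at 665 nm; pIC50 converted to pKi via Cheng-Prusoff.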

[2] = system: TGF-β-stimulated SMAD3 phosphorylation in BEAS-2B cells; test: Cellular ALK5 potency assay, inhibition of TGF-β stimulated pSMAD3 formation in BEAS-2B cells; assay type: cell-based; details: Homo sapiens; inhibition of TGF-β stimulated pSMAD3 formation, BEAS-2B cells; read-out: BEAS2B pIC50 (converted)
How it was run: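 pSMAD3 was quantified by AlphaLISA in BEAS-2B lysates after 10 ng/mL TGF-β (final) for 30 min. Before stimulation, cells received compound for 1 h at 37° C in supplemented HBSS. Values are pIC50, relative to TGF-β-stimulated cells without compound.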

Work on `Cc1cccc(-c2[nH]cnc2-c2ccc3ncc(NCCN4CCN(C(C)C)CC4)cc3n2)n1` [Compound 104, N-(2-(4-isopropylpiperazin-1-yl)ethyl)-6-(5-(6-methylpyridin-2-yl)-1H-imidazol-4-yl)-1,5-naphthyridin-3-amine] yielded a Ki [1] of 0.0398 to 0.316 nM and an IC50 [2] of 25.1 to 158 nM.
Compound `Cc1cccc(-c2[nH]cnc2-c2ccc3ncc(-c4ccc(C(=O)O[C@H]5CCN(C)C5)s4)cc3c2)n1` [Compound 1008, (S)-1-methylpyrrolidin-3-yl 5-(6-(5-(6-methylpyridin-2-yl)-1H-imidazol-4-yl)quinolin-3-yl)thiophene-2-carboxylate] has a Ki [1] of 0.0398 to 0.316 nM and an IC50 [2] of 25.1 to 158 nM.
`CNCCn1cc(-c2cnc3ccc(-c4c(-c5cccc(C)n5)[nH]c5cccnc45)nc3c2)cn1` [Compound 165, N-methyl-2-[4-[6-[2-(6-methyl-2-pyridyl)-1H-pyrrolo[3,2-b]pyridin-3-yl]-1,5-naphthyridin-3-yl]pyrazol-1-yl]ethanamine] showed a Ki [1] of 0.0398 to 0.316 nM and an IC50 [2] of 200 to 1260 nM.
`Cc1cccc(-c2[nH]cnc2-c2ccc3ncc(-c4cncc(C(=O)OC5CCNCC5)c4)cc3c2)n1` [Compound 136, 4-piperidyl 5-[6-[5-(6-methyl-2-pyridyl)-1H-imidazol-4-yl]-3-quinolyl]pyridine-3-carboxylate] showed a Ki [1] of 0.0398 to 0.316 nM and an IC50 [2] of 200 to 1260 nM.
For `Cc1cccc(-c2[nH]cnc2-c2ccc3ncc(-c4ccc(C(=O)O[C@H]5CCNC5)nc4)cc3c2)n1` [Compound 1122, [(3S)-pyrrolidin-3-yl] 5-[6-[5-(6-methyl-2-pyridyl)-1H-imidazol-4-yl]-3-quinolyl]pyridine-2-carboxylate], the Ki [1] was 0.0398 to 0.316 nM and the IC50 [2] was 200 to 1260 nM.
With `Cc1cccc(-c2[nH]cnc2-c2ccc3ncc(-c4cc(C(=O)OCCN5CCNCC5)cs4)cc3c2)n1` [Compound 1141, 2-piperazin-1-ylethyl 5-[6-[5-(6-methyl-2-pyridyl)-1H-imidazol-4-yl]-3-quinolyl]thiophene-3-carboxylate] the Ki [1] was 0.0398 to 0.316 nM and the IC50 [2] was 25.1 to 158 nM.
With `Cc1nc(-c2n[nH]cc2-c2ccc3ncc(-c4cnn(CCN)c4)cc3n2)ccc1F` [Compound 192, 2-[4-[6-[3-(5-fluoro-6-methyl-2-pyridyl)-1H-pyrazol-4-yl]-1,5-naphthyridin-3-yl]pyrazol-1-yl]ethanamine] the Ki [1] was < 0.0316 nM and the IC50 [2] was < 20 nM.
For `Cc1cccc(-c2[nH]cnc2-c2ccc3ncc(-c4cnn(C5CCCNC5)c4)cc3c2)n1` (centres unmarked) [Compound 405, 6-[5-(6-methyl-2-pyridyl)-1H-imidazol-4-yl]-3-[1-(3-piperidyl)pyrazol-4-yl]quinoline], the Ki [1] was < 0.0316 nM and the IC50 [2] was 25.1 to 158 nM.
`Cc1cccc(-c2[nH]cnc2-c2ccc3ncc(-c4cnc(C(=O)O)nc4)cc3c2)n1` [Compound 1142, 5-[6-[5-(6-methyl-2-pyridyl)-1H-imidazol-4-yl]-3-quinolyl]pyrimidine-2-carboxylic acid] showed a Ki [1] of 0.398 to 3.16 nM and an IC50 [2] of 1580 to 10000 nM.
With `Cc1cccc(-c2n[nH]cc2-c2ccc3nccc(CN4CCOCC4)c3n2)n1` [Compound 811, 4-[[6-[3-(6-methyl-2-pyridyl)-1H-pyrazol-4-yl]-1,5-naphthyridin-4-yl]methyl]morpholine] the Ki [1] was 0.0398 to 0.316 nM and the IC50 [2] was 200 to 1260 nM.
Work on `CCOC(=O)Cc1ccnc2ccc(-c3c[nH]nc3-c3cccc(C)n3)nc12` [Compound 855, ethyl 2-[6-[3-(6-methyl-2-pyridyl)-1H-pyrazol-4-yl]-1,5-naphthyridin-4-yl]acetate] yielded a Ki [1] of 0.0398 to 0.316 nM and an IC50 [2] of 25.1 to 158 nM.
In the case of `Cc1cccc(-c2n[nH]cc2-c2ccc3ncc(N4CCC[C@@H](N(C)C)C4)cc3n2)n1` [Compound 433, (3R)-N,N-dimethyl-1-[6-[3-(6-methyl-2-pyridyl)-1H-pyrazol-4-yl]-1,5-naphthyridin-3-yl]piperidin-3-amine], the Ki [1] is reported as 0.0398 to 0.316 nM and the IC50 [2] is reported as 25.1 to 158 nM.
`Cc1cccc(-c2[nH]cnc2-c2ccc3ncc(-c4nc(C5=CCNC5)cs4)cc3c2)n1` [Compound 1043, 4-(2,5-dihydro-1H-pyrrol-3-yl)-2-[6-[5-(6-methyl-2-pyridyl)-1H-imidazol-4-yl]-3-quinolyl]thiazole] was tested, and the Ki [1] was 0.0398 to 0.316 nM and the IC50 [2] was < 20 nM.
Compound `Cc1nc(-c2n[nH]cc2-c2ccc3ncc(-c4nc5n(n4)CCNC5)cc3n2)ccc1F` [Compound 176, 2-[3-(5-fluoro-6-methyl-2-pyridyl)-1H-pyrazol-4-yl]-7-(5,6,7,8-tetrahydro-[1,2,4]triazolo[1,5-a]pyrazin-2-yl)-1,5-naphthyridine] has a Ki [1] of 0.0398 to 0.316 nM and an IC50 [2] of 25.1 to 158 nM.
In the case of `Cc1cccc(-c2[nH]cnc2-c2ccc3ncc(C(=O)OCCN4CC5(CNC5)C4)cc3c2)n1` [Compound 894, 2-(2,6-diazaspiro[3.3]heptan-2-yl)ethyl 6-(5-(6-methylpyridin-2-yl)-1H-imidazol-4-yl)quinoline-3-carboxylate], the Ki [1] is reported as 0.398 to 3.16 nM and the IC50 [2] is reported as 200 to 1260 nM.
`COc1[nH]nc(-c2cccc(C)n2)c1-c1ccc2ncc(-c3cnn4c3NCC4)cc2n1` [Compound 371, 7-(2,3-dihydro-1H-imidazo[1,2-b]pyrazol-7-yl)-2-[5-methoxy-3-(6-methyl-2-pyridyl)-1H-pyrazol-4-yl]-1,5-naphthyridine] gave a Ki [1] of 0.398 to 3.16 nM and an IC50 [2] of 200 to 1260 nM.
With `Cc1nc(-c2nc3ccccn3c2-c2ccc3ncc(-c4cnn(C5CCCNC5)c4)cc3n2)ccc1F` (centres unmarked) [Compound 576, 2-[2-(5-fluoro-6-methyl-2-pyridyl)imidazo[1,2-a]pyridin-3-yl]-7-[1-(3-piperidyl)pyrazol-4-yl]-1,5-naphthyridine] the Ki [1] was 0.0398 to 0.316 nM and the IC50 [2] was 25.1 to 158 nM.
`FC(F)c1cccc(-c2n[nH]cc2-c2ccc3ncc(N4CCCNCC4)cc3n2)n1` [Compound 446, 7-(1,4-diazepan-1-yl)-2-[3-[6-(difluoromethyl)-2-pyridyl]-1H-pyrazol-4-yl]-1,5-naphthyridine] gave a Ki [1] of 0.0398 to 0.316 nM and an IC50 [2] of 25.1 to 158 nM.
Compound `Cc1cccc(-c2[nH]cnc2-c2ccc3ncc(N4CC(N)C4)cc3c2)n1` [Compound 460, 1-[6-[5-(6-methyl-2-pyridyl)-1H-imidazol-4-yl]-3-quinolyl]azetidin-3-amine] has a Ki [1] of 0.0398 to 0.316 nM and an IC50 [2] of 25.1 to 158 nM.
In the case of `Cc1cccc(-c2[nH]cnc2-c2ccc3ncc(-c4cccc(N5CCNCC5)c4)cc3c2)n1` [Compound 581, 6-[5-(6-methyl-2-pyridyl)-1H-imidazol-4-yl]-3-(3-piperazin-1-ylphenyl)quinoline], the Ki [1] is reported as < 0.0316 nM and the IC50 [2] is reported as 25.1 to 158 nM.
In the case of `Cc1cccc(-c2[nH]cnc2-c2ccc3ncc(-c4ccc(C(=O)O[C@@H]5CCN(C)C5)cc4)cc3c2)n1` [Compound 158, [(3R)-1-methylpyrrolidin-3-yl] 4-[6-[5-(6-methyl-2-pyridyl)-1H-imidazol-4-yl]-3-quinolyl]benzoate], the Ki [1] is reported as 0.0398 to 0.316 nM and the IC50 [2] is reported as 25.1 to 158 nM.
With `Cc1cccc(-c2n[nH]cc2-c2ccc3ncc(C4=CCC(N)CC4)cc3n2)n1` (centres unmarked) [Compound 21, 4-[6-[3-(6-methyl-2-pyridyl)-1H-pyrazol-4-yl]-1,5-naphthyridin-3-yl]cyclohex-3-en-1-amine] the Ki [1] was < 0.0316 nM and the IC50 [2] was 25.1 to 158 nM.
`Cc1nc(-c2nc3ccccn3c2-c2ccc3ncc(-c4cnc5n4CCNC5)cc3n2)ccc1F` [Compound 560, 2-[2-(5-fluoro-6-methyl-2-pyridyl)imidazo[1,2-a]pyridin-3-yl]-7-(5,6,7,8-tetrahydroimidazo[1,2-a]pyrazin-3-yl)-1,5-naphthyridine] was tested, and the Ki [1] was 0.0398 to 0.316 nM and the IC50 [2] was 25.1 to 158 nM.
With `Cc1cccc(-c2[nH]ncc2-c2ccc3ncc(C(=O)O)cc3c2)n1` [Compound 783, 6-[5-(6-methyl-2-pyridyl)-1H-pyrazol-4-yl]quinoline-3-carboxylic Acid] the Ki [1] was 3.98 to 31.6 nM and the IC50 [2] was 1580 to 10000 nM.
Compound `Cc1cccc(-c2[nH]cnc2-c2ccc3ncc(-c4nccc(C(=O)OC5CNC5)n4)cc3c2)n1` [Compound 1075, azetidin-3-yl 2-[6-[5-(6-methyl-2-pyridyl)-1H-imidazol-4-yl]-3-quinolyl]pyrimidine-4-carboxylate] has a Ki [1] of 0.398 to 3.16 nM and an IC50 [2] of 200 to 1260 nM.
Compound `CNC(=O)[C@@H]1CN(c2cnc3ccc(-c4nc[nH]c4-c4cccc(C)n4)cc3c2)CCN1` [Compound 384, (2S)-N-methyl-4-[6-[5-(6-methyl-2-pyridyl)-1H-imidazol-4-yl]-3-quinolyl]piperazine-2-carboxamide] has a Ki [1] of 0.0398 to 0.316 nM and an IC50 [2] of 200 to 1260 nM.
`CNCCn1cc(-c2cnc3ccc(-c4c(-c5cccc(C)n5)[nH]c5ccccc45)cc3c2)cn1` [Compound 162, N-methyl-2-[4-[6-[2-(6-methyl-2-pyridyl)-1H-indol-3-yl]-3-quinolyl]pyrazol-1-yl]ethanamine] was tested, and the Ki [1] was 0.0398 to 0.316 nM and the IC50 [2] was 200 to 1260 nM.
For `Cc1cccc(-c2[nH]cnc2-c2ccc3ncc(N4CCN[C@H](C(=O)O)C4)cc3c2)n1` [Compound 682, (2S)-4-[6-[5-(6-methyl-2-pyridyl)-1H-imidazol-4-yl]-3-quinolyl]piperazine-2-carboxylic acid], the Ki [1] was 0.398 to 3.16 nM and the IC50 [2] was 200 to 1260 nM.
